PubChem BioAssay (NCI)
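Results reflect a 48-hour exposure of cells in 96-well plates to compound at five concentrations. The concentration for 50% growth inhibition is given as GI50. TGI: concentration producing complete growth inhibition.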

Legend:
Test in all cases: NCI-60 cell line screen, 48 h
786-0 renal = system: 786-0 renal
MDA-MB-231 breast = system: MDA-MB-231 breast
M14 melanoma = system: M14 melanoma
HCC-2998 colon = system: HCC-2998 colon
RPMI-8226 leukemia = system: RPMI-8226 leukemia
A549 NSCLC = system: A549 NSCLC
BT-549 breast = system: BT-549 breast
UACC-257 melanoma = system: UACC-257 melanoma
TK-10 renal = system: TK-10 renal
SR leukemia = system: SR leukemia

Row | Compound | GI50 (786-0 renal) [µM] | TGI (786-0 renal) [µM] | GI50 (MDA-MB-231 breast) [µM] | TGI (MDA-MB-231 breast) [µM] | GI50 (M14 melanoma) [µM] | TGI (M14 melanoma) [µM] | GI50 (HCC-2998 colon) [µM] | TGI (HCC-2998 colon) [µM] | GI50 (RPMI-8226 leukemia) [µM] | TGI (RPMI-8226 leukemia) [µM] | GI50 (A549 NSCLC) [µM] | TGI (A549 NSCLC) [µM] | GI50 (BT-549 breast) [µM] | TGI (BT-549 breast) [µM] | GI50 (UACC-257 melanoma) [µM] | TGI (UACC-257 melanoma) [µM] | GI50 (TK-10 renal) [µM] | TGI (TK-10 renal) [µM] | TGI (SR leukemia) [µM] | GI50 (SR leukemia) [µM]
1 | Clc1c(Cl)[n+](Cc2ccc3ccccc3c2)cn1Cc1ccc2ccccc2c1 | 1.65 | 3.11 | 1.42 | 2.93 | 1.21 | 2.8 | 1.53 | 3.05 | 1.25 | 3.55 | 3.32 | 11.7 | 1.67 | 3.09 | 1.74 | 3.51 | 1.58 | 3.11 | – | –
2 | OC(CNc1ccnc2cc(Cl)ccc12)CNc1ccnc2cc(Cl)ccc12 | 1.81 | 3.39 | 1.73 | 3.44 | 1.73 | 3.18 | – | – | 3 | 11.1 | 4.49 | 21.2 | 1.67 | 3.13 | 1.87 | 3.49 | 2.13 | 4.86 | – | –
3 | CN(CCS(=O)(=O)N1C(=O)C2CCCN2C(=O)[C@@H]1Cc1ccccc1)C(=O)OCc1ccccc1 (some centres not stated) | – | > 100 | – | – | – | > 100 | – | > 100 | – | 45.4 | – | > 100 | – | – | – | > 100 | – | > 100 | > 100 | –
4 | CCCCCCCCCCCCCCCC1=NCC[N+]1(CCO)CCO | 1.64 | 3 | 1.81 | 3.51 | 1.62 | 3.01 | 1.68 | 4.19 | 4.89 | 40.5 | 2.28 | 5.35 | 3.3 | 11.9 | 6.48 | 20.7 | 3.55 | 13.6 | – | –
5 | O=C1[C@H]2ON(c3ccccc3)C(c3ccc([N+](=O)[O-])cc3)[C@H]2C(=O)N1c1ccc(Cc2ccc(N3C(=O)[C@@H]4ON(c5ccccc5)C(c5ccc([N+](=O)[O-])cc5)[C@@H]4C3=O)cc2)cc1 (some centres not stated) | – | > 100 | – | – | – | 38.9 | – | > 100 | – | > 100 | – | > 100 | – | – | – | > 100 | – | > 100 | – | –
6 | CC1=N/C(=C/c2ccc3c(c2)OCO3)C(=O)O1 | – | > 100 | – | – | – | > 100 | – | – | – | > 100 | – | > 100 | – | – | – | > 100 | – | > 100 | – | –
7 | CCC[C@H]1O[C@@H]2CC(=O)O[C@@H]2C2=C1C(=O)C=CC2=O | – | 30.3 | – | – | – | 32.8 | – | > 57 | – | 74.6 | – | > 58.1 | – | – | – | 34.8 | – | > 57.3 | 49.8 | –
8 | CC(C)(C)C1=CC(=C(P(=O)(O)O)P(=O)(O)O)C=C(C(C)(C)C)C1=O | – | > 50 | – | – | – | > 50 | – | > 50 | – | > 50 | – | > 50 | – | – | – | > 50 | – | > 50 | – | –
9 | C=C[C@@H](C)[C@]1(C(=O)OC)CCCC12OCCO2 | – | > 100 | – | – | – | > 100 | – | > 100 | – | > 100 | – | > 100 | – | – | – | > 100 | – | > 100 | > 100 | –
10 | COc1ccc(Cc2c3cc(O)c(=O)cc-3ccn2C)cc1 | – | > 66.8 | – | – | – | 30.5 | – | > 100 | – | > 100 | – | > 100 | – | – | – | > 89.8 | – | > 100 | 37 | –
11 | C/C(=N\N=C(N)N)C(CN1CCCCC1)C(c1ccccc1)c1c(O)c2ccccc2oc1=O (configuration not stated) | – | > 100 | – | – | – | > 100 | – | > 100 | – | > 100 | – | > 100 | – | – | – | > 100 | – | > 100 | > 100 | –
12 | Cc1c(C)c2ccc3oc4ccccc4c3c2oc1=O | – | > 100 | – | – | – | > 100 | – | > 100 | – | > 100 | – | > 100 | – | – | – | > 100 | – | > 100 | > 100 | –
13 | CCOC(=O)c1cc(C(=O)c2ccc(OC)cc2)n2ccc(/C=C/c3cc[n+](CC(=O)c4ccc(OC)cc4)cc3)cc12 | 1.98 | 3.94 | 1.58 | 3.22 | 1.77 | 3.8 | – | – | 1.65 | 4.85 | 3.96 | > 100 | – | – | – | – | 2.01 | 5.76 | 2.29 | 0.367
14 | CCOC(OC(C)=O)[C@@H]1C=C[C@H](C)N(c2ccc([N+](=O)[O-])cc2)O1 (some centres not stated) | – | 7.23 | – | – | – | 9.44 | – | 26.3 | – | 5.45 | – | 43.4 | – | – | – | 26.9 | – | 14 | – | –
15 | CSc1ccc2c(cc1=O)[C@@H](NC(=O)c1cccc([N+](=O)[O-])c1)CCc1cc(O)c(O)c(O)c1-2 | – | > 100 | – | – | – | > 100 | – | > 100 | – | > 100 | – | > 100 | – | – | – | > 100 | – | > 100 | – | –
16 | CC(C)N(C(=O)C12C3C4C5(C#N)C3C1(C#N)C5C42C#N)C(C)C (configuration not stated) | – | > 100 | – | – | – | – | – | > 100 | – | > 100 | – | > 100 | – | – | – | > 100 | – | > 100 | – | –
17 | COc1c/c(=C2\C=c3ccccc3=N2)[nH]/c1=C\c1[nH]c(C)cc1C | 0.048 | 4.21 | 0.0117 | 3.87 | 0.64 | > 31.9 | 0.185 | 33.7 | < 0.0151 | 2.9 | 0.139 | 19.2 | 0.0319 | 31.3 | 0.628 | 32.7 | 0.106 | 36.7 | – | –
18 | O=C(CCC(=O)Nc1ccc(Cl)c(Cl)c1)Cc1nc2ccccc2o1 | – | > 100 | – | – | – | > 100 | – | > 100 | – | > 100 | – | > 100 | – | – | – | > 100 | – | > 100 | > 100 | –
19 | COc1cc2cc(OC(C)=O)c3cc4c(cc3c2c(OC)c1OC)OCO4 | – | > 100 | – | – | – | > 100 | – | > 100 | – | – | – | > 100 | – | – | – | > 100 | – | > 100 | – | –
20 | Cc1nc2sccn2c1C(=O)NN | – | > 100 | – | – | – | – | – | > 100 | – | > 100 | – | > 100 | – | – | – | > 100 | – | > 100 | > 100 | –
21 | O=C(C(=O)c1cc2ccccc2[nH]1)c1cc2ccccc2[nH]1 | – | > 347 | – | – | – | > 347 | – | > 347 | – | > 110 | – | > 347 | – | – | – | > 347 | – | > 347 | > 110 | –
22 | O=c1c2c(nc3n1CCS3)[nH]c1cc([N+](=O)[O-])ccc12 | > 100 | > 100 | > 100 | > 100 | > 100 | > 100 | > 100 | > 100 | > 100 | > 100 | > 100 | > 100 | – | – | > 100 | > 100 | > 100 | > 100 | – | –
